Results as given in PMC10793205, “Differential transmetallation of complexes of the anti-cancer thiosemicarbazone, Dp4e4mT: effects on anti-proliferative efficacy, redox activity, oxy-myoglobin and oxy-hemoglobin oxidation” (Chemical Science, 2023).

What was measured:
oxy-Mb = molecular target: T1, oxy-Mb (Homo sapiens, UniProt P02144); assay: Oxidation of purified oxy-Mb to met-Mb (UV-vis); type: biochemical; details: 10 μM agent, oxy-Mb 40 μM, 1–3 h/20 °C
T1 sequence (P02144 1-154): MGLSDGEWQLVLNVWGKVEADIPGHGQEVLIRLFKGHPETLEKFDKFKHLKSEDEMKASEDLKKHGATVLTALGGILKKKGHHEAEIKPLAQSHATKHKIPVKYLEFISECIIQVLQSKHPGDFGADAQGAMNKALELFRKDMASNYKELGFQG
Source text: As such, it was important to examine the effect of the Dp4e4mT complexes on oxy-Hb and oxy-Mb oxidation (Fig. 6 and 7). Comparisons were made to three controls, namely DFO, Dp44mT, and DpC, as well as their Fe(III) complexes. […] In contrast, the Fe(III) complexes of Dp44mT and DpC were positive controls, as they induce oxidation of oxy-Mb.[28,39,42]
Fig. 6 (A and B) Investigation of the effects of Dp4e4mT and its Fe(III), Co(III), Ni(II), Cu(II), Zn(II), Ga(III), and Pd(II) complexes versus the positive controls DFO, Dp44mT, DpC and their Fe(III) complexes (10 μM) on met-Mb generation (% zero time) after an incubation of 1–3 h/20 °C with purified oxy-Mb (40 μM). Results are mean ± SD (3 experiments).
Spectroscopic Examination of Met-Mb and Met-Hb Formation from Oxy-Mb and Oxy- […]
Oxy-Mb and oxy-Hb solutions were prepared following established protocols.8, 17 In brief, solutions of reduced Mb and Hb in PBS (pH 7.2) were prepared by adding 1.2 mL of Na2S2O4 (12 mM) to 38 mL of met-Mb and met-Hb solution (40 μM). 17 Subsequently, oxy-Mb and oxy-Hb were generated by gently passing 150 mL of oxygen (from an air-filled syringe) through the solution containing reduced Mb and Hb, effectively eliminating any residual Na2S2O4. Following this, the oxy-Mb and oxy-Hb solutions were passed through a PD-10 column prepacked with 8.3 mL of Sephadex G-25 and equilibrated with PBS (pH 7.2). 17 In experiments examining the activity of the agents, all complexes were dissolved in 1,2-propanediol, then diluted to 10 µM in PBS (pH 7.2). The experiments were conducted over incubations of 0 to 3 h with the agents. UV-Vis spectra covering the range of 300 to 700 nm were recorded at a temperature of 20°C using a Shimadzu UV−Vis spectrophotometer (UV-1800; Shimadzu, Kyoto, Japan). Concentrations of met-Mb and met-Hb, as well as reduced-Mb and reduced-Hb, were determined at 409 nm and 435 nm, respectively. Concentrations of oxy-Mb and oxy-Hb were determined at 544 nm and 582 nm, respectively. 17

SK-N-MC and AsPC-1 cells = assay: MTT cellular proliferation assay, values stated over both tumor cell-types; type: cell-based, human; details: average of the therapeutic indices for SK-N-MC and AsPC-1 vs MRC-5, 72 h/37 °C
Procedure: The anti-proliferative activity of Dp4e4mT relative to its complexes with Fe(III), Co(III), Ni(II), Cu(II), Zn(II), Ga(III), and Pd(II) was examined over incubation periods of 24-, 48-, and 72 h/37 °C (Table 2). These studies were performed using human SK-N-MC neuroepithelioma and AsPC-1 pancreatic adenocarcinoma cells that we have previously examined to assay other ligands.[15,28,43]
To examine the selectivity of the Dp4e4mT complexes against neoplastic versus normal mortal cells, their anti-proliferative efficacy was compared to mortal MRC-5 fibroblasts after a 72 h/37 °C incubation (Table 3). […] To further examine selectivity, an in vitro therapeutic index was calculated as per our previous investigations.[28,57,59,66,67] This parameter is derived from the ratio of the IC50 of MRC-5 cells/IC50 of SK-N-MC or AsPC-1 cells; with high ratios indicating greater selective anti-proliferative activity against neoplastic cells (Table 3). The mean therapeutic index is the average of the therapeutic indices calculated for both tumor cell-types. […] The mean therapeutic index of Dp4e4mT exceeded that obtained for clinically trialed DpC (157), as well as that of Dp44mT (112) and DFO (6). […]
(§1) All cell lines were procured from the American Type Culture Collection (ATCC; Manassas, VA). The SK-N-MC neuroepithelioma cell line and the mortal MRC-5 fibroblasts were cultured in minimum essential medium (Sigma-Aldrich), while the AsPC-1 cell line was cultured in Roswell Park Memorial Institute 1640 medium (Thermo Fisher Scientific, MA, USA). Both media were supplemented with 10% fetal calf serum, non-essential amino acids (1 mM), sodium pyruvate (1 mM), L-glutamine (2 mM), penicillin (100 U/mL), streptomycin (100 U/mL), and Fungizone (0.5 µg/mL). Cells were maintained at 37 °C in an incubator under a humidified atmosphere with 5% CO 2, following established protocols. 11 Cellular Proliferation Assay
(§2) Cellular proliferation was evaluated through the established 3-(4,5-dimethylthiazol-2-yl)-2,5-diphenyltetrazolium bromide (MTT) proliferation assay, validated by viable cell counts.12 […]
(§3) Ligands and complexes were dissolved in DMSO to make a stock solution of 10 mM, subsequently diluted in culture media. For cell culture experiments, the DMSO's maximum concentration remained below 0.5% (v/v), with no discernible impact on proliferation.12 MTT […]
(§4) Trypan blue staining.12 Analysis of the data was executed employing MARS Data Analysis Software (BMG LabTech; version 3.30). The concentration of agents necessary to inhibit cellular proliferation by 50% (IC 50) was then calculated. […]

SK-N-MC cells = assay: MTT cellular proliferation assay, SK-N-MC neuroepithelioma cells; type: cell-based, human; details: IC50 of MRC-5 cells/IC50 of SK-N-MC cells, 72 h/37 °C
Procedure: The anti-proliferative activity of Dp4e4mT relative to its complexes with Fe(III), Co(III), Ni(II), Cu(II), Zn(II), Ga(III), and Pd(II) was examined over incubation periods of 24-, 48-, and 72 h/37 °C (Table 2). These studies were performed using human SK-N-MC neuroepithelioma and AsPC-1 pancreatic adenocarcinoma cells that we have previously examined to assay other ligands.[15,28,43] […]
as §1, §2, §3, §4

`CCN(C)C([S-])=NN=C(c1ccccn1)c1ccccn1.CCN(C)C([S-])=NN=C(c1ccccn1)c1ccccn1.[Zn+2]` [[Zn(Dp4e4mT)2]] was tested, and the “oxy-Mb oxidation (in words)” value (oxy-Mb) was “significantly increased oxy-Mb and oxy-Hb oxidation”, the “oxy-Mb oxidation (in words)” value (oxy-Mb; listed as Dp4e4mT Zn(II) complex) was “induced marked oxy-Mb oxidation” and the Mean therapeutic index (SK-N-MC and AsPC-1 cells) was 156. For the same compound, the “Therapeutic index SK-N-MC” value (SK-N-MC cells) was 187.
